Results published in publication PMC9045277, “Quercetin Reduces the Virulence of S. aureus by Targeting ClpP to Protect Mice from MRSA-Induced Lethal Pneumonia” (Microbiology Spectrum, 2022).
In brackets after ≈: the same amount, converted by molar mass.

Columns and labels:
ClpP [1] = biological target: T1, ClpP (Staphylococcus aureus, UniProt Q2G036); assay: biochemical; conditions: read-out: Relative inhibition rate (%)
T1 construct: pET28a-clpP, purified from E. coli BL21(DE3)
Method: This property was exploited to screen the available laboratory library of small molecules for ClpP inhibitors. First, 10 μM ClpP and 64 μg/mL of the small molecule compound were added to a black opaque 96-well plate containing 100 μL of ClpP buffer (100 mM HEPES,100 mM NaCl) and incubated for 1 h at room temperature. Afterward, 100 μM Suc-LeuTyr-AMC (Cat number S1153, Sigma-Aldrich, St. Louis, MO, USA) was added to 96-well plates and incubated for 30 min at 32°C. Finally, the fluorescence values were detected by Infinite M200 (360 nm excitation/465 nm emission). […] Since the fluorescent substrate Suc-LY-AMC can be used to detect the activity of ClpP protein, we screened a library of natural products available in our laboratory.

S. aureus USA300 (MRSA) = test system: T2, S. aureus USA300 (MRSA); assay: microbe, parasite or virus in culture; parameters: MIC, growth inhibition of MRSA USA300; conditions: Staphylococcus aureus, read-out: MIC (μg/mL)
T2 construct: USA300

ClpP [2] = biological target: T1, ClpP; assay: ClpP peptidase assay with fluorescent substrate Suc-LY-AMC (positive-control inhibitor); format: biochemical
ClpP [3] = biological target: T1, ClpP; assay: LSPR (OpenSPR) with immobilized ClpP; supported by TSA, CETSA in lysate, and Suc-LY-AMC inhibition (IC50 […]); format: binding
[4] = biological target: T3, 6×His-ClpX protein of S. aureus (S. aureus, UniProt Q2FXQ7 1-420); assay: pull-down; 6×His-ClpX and label-free ClpP mixed with 2 mM ATPγS (with DMSO, quercetin or ADEP4), overnight at 4°C; passed through Ni-NTA, washed with binding buffer (40 mM Tris, 200 mM NaCl, pH 8.5), eluted with 400 mM imidazole; SDS-PAGE; conditions: both partners purified
T3 construct: source: E. coli, purified
T3 sequence (Q2FXQ7 whole entry): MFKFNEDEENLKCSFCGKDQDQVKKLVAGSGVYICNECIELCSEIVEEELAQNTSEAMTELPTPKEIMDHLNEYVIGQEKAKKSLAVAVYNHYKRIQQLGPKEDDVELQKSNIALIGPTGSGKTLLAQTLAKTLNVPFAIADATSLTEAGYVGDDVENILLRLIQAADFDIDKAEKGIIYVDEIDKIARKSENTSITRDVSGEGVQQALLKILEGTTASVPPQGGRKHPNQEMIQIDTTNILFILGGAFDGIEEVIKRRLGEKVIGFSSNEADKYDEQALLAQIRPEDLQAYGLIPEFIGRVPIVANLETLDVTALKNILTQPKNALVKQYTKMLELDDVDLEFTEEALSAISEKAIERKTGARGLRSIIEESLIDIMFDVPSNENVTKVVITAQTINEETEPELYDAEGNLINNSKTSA
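Throughout, for Relative inhibition rate (%): ClpP peptidase activity measured as fluorescence (ex 360 nm, em 465 nm) from cleavage of Suc-LY-AMC substrate at 100 µM, 30 min at 32°C.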

Molecule | inhibition at 64 µg/mL (ClpP [1]) | further results
O=c1c(-c2ccc(O)cc2)coc2cc(O[C@@H]3O[C@H](CO)[C@@H](O)[C@H](O)[C@H]3O)cc(O)c12 [Genistin] | 22.1 ± 0.63% | –
COc1cc(O)c2c(=O)cc(-c3ccc(O)cc3)oc2c1 [Genkwanin] | 13.7 ± 0.58% | –
COc1cc2c(=O)c(-c3ccc(O)cc3)coc2cc1O[C@@H]1O[C@H](CO)[C@@H](O)[C@H](O)[C@H]1O [Glycitin] | 18.5 ± 1.26% | –
O=Cc1ccc(O[C@@H]2O[C@H](CO)[C@@H](O)[C@@H](O)[C@H]2O)cc1 [Helicid] | 13.9 ± 3.22% | –
Oc1cc2c(cc1O)[C@@H]1c3ccc(O)c(O)c3OC[C@]1(O)C2 [Hematoxylin] | 23.9 ± 2.69% | –
O=C1C([C@@H]2O[C@H](CO)[C@@H](O)[C@H](O)[C@H]2O)=C(O)/C(=C(O)/C=C/c2ccc(O)cc2)C(=O)C1(O)[C@@H]1O[C@H](CO)[C@@H](O)[C@H](O)[C@H]1O (stereo partly drawn) [Hydroxysafflor yellow A] | 52.4 ± 4.23% | –
COc1ccc(-c2oc3c(CC=C(C)C)c(O[C@@H]4O[C@H](CO)[C@@H](O)[C@H](O)[C@H]4O)cc(O)c3c(=O)c2O[C@@H]2O[C@@H](C)[C@H](O)[C@@H](O)[C@H]2O)cc1 [Icariin] | 34.6 ± 1.54% | –
COc1cc(-c2coc3cc(O[C@@H]4O[C@H](CO)[C@@H](O)[C@H](O)[C@H]4O)c(OC)c(O)c3c2=O)cc(O)c1OC [Iridin] | 14.2 ± 1.39% | –
O=c1c(-c2ccccc2)coc2ccccc12 [Isoflavone] | 20.1 ± 0.73% | –
O=c1cc(-c2ccc(O)c(O)c2)oc2cc(O)c([C@@H]3O[C@H](CO)[C@@H](O)[C@H](O)[C@H]3O)c(O)c12 [Isoorientin] | 50.2 ± 1.58% | –
COc1ccc(C(=O)O)cc1O [Isovanillic acid] | 13.7 ± 2.43% | –
O=c1c(O)c(-c2ccc(O)cc2)oc2cc(O)cc(O)c12 [Kaempferol] | 44 ± 2.75% | –
C[C@@H]1O[C@@H](OC[C@H]2O[C@@H](Oc3cc(O)c4c(=O)cc(-c5ccc(O)cc5)oc4c3)[C@H](O[C@@H]3O[C@@H](C)[C@H](O)[C@@H](O)[C@H]3O)[C@@H](O)[C@@H]2O)[C@H](O)[C@H](O)[C@H]1O [Ligustroflavone] | 26.6 ± 1.16% | –
O=C1C[C@@H](c2ccc(O[C@@H]3O[C@H](CO)[C@@H](O)[C@H](O)[C@H]3O)cc2)Oc2cc(O)ccc21 [Liquiritin] | 3.2 ± 0.97% | –
COC(=O)C1=CO[C@@H](O[C@@H]2O[C@H](CO)[C@@H](O)[C@H](O)[C@H]2O)[C@@H]2[C@@H](C)[C@@H](O)C[C@H]12 [Loganin] | 14.7 ± 3.56% | –
COc1ccc(CCC(=O)c2ccc(O)cc2)c(OC)c1 [Loureirin A] | 56.5 ± 2.47% | –
COc1cc(OC)c(CCC(=O)c2ccc(O)cc2)c(OC)c1 [Loureirin B] | 29.8 ± 2.24% | –
CC1=C[C@H](O)CC(C)(C)[C@H]1/C=C/C(C)=C/C=C/C(C)=C/C=C/C=C(C)/C=C/C=C(C)/C=C/C1=C(C)C[C@@H](O)CC1(C)C [Lutein] | 1.4 ± 0.52% | –
COc1ccc(-c2cc(=O)c3c(O)c(OC)c(O)c(OC)c3o2)cc1 [Lysionotin] | 59.1 ± 1.55% | –

Molecule | inhibition at 64 µg/mL (ClpP [1]) | further results
O=C1C[C@@H](c2ccc(O)cc2)Oc2cc(O)cc(O)c21 [Naringenin] | 8.2 ± 0.24% | –
C[C@@H]1O[C@@H](O[C@H]2[C@H](Oc3cc(O)c(C(=O)CCc4ccc(O)cc4)c(O)c3)O[C@H](CO)[C@@H](O)[C@@H]2O)[C@H](O)[C@H](O)[C@H]1O [Naringin dihydrochalcone] | 20.6 ± 0.51% | –
C=C(C)[C@H](CC=C(C)C)Cc1c(O)cc(O)c2c1O[C@H](c1ccc(O)cc1O)CC2=O [Nor-kurarinone] | 83.3 ± 0.02% | MIC (S. aureus USA300 (MRSA)): 2 µg/mL (≈ 4.71 µM)
O=c1cc(-c2ccc(O)c(O)c2)oc2c([C@@H]3O[C@H](CO)[C@@H](O)[C@H](O)[C@H]3O)c(O)cc(O)c12 [Orientin] | 61.4 ± 1.24% | –
COc1ccc(C(C)=O)c(O)c1 [Paeonol] | 26.7 ± 4.31% | –
COc1ccc(-c2cc(=O)c3c(O)c(OC)c(O[C@@H]4O[C@H](CO[C@@H]5O[C@@H](C)[C@H](O)[C@@H](O)[C@H]5O)[C@@H](O)[C@H](O)[C@H]4O)cc3o2)cc1 [Pectolinarin] | 28.3 ± 1.37% | –
COc1cc2c(cc1O)C[C@H]1c3cc(O)c(OC)cc3CC[N+]1(C)C2 (stereo partly drawn) [Phellodendrine chloride] | 10.2 ± 2.67% | –
O=C(CCc1ccc(O)cc1)c1c(O)cc(O)cc1O[C@@H]1O[C@H](CO)[C@@H](O)[C@H](O)[C@H]1O [Phlorizin] | 5.3 ± 0.71% | –
O=C1C[C@@H](c2ccccc2)Oc2cc(O)cc(O)c21 [Pinocembrin] | 33.7 ± 0.68% | –
C/C=C(/C)C(=O)O[C@H]1[C@@H](OC(C)=O)c2c(ccc3ccc(=O)oc23)OC1(C)C [Praeruptorin A] | 37.8 ± 3.15% | –
COc1ccc(-c2oc3c(OC)c(O)cc(O)c3c(=O)c2O)cc1 [Prudomestin] | 54.2 ± 4.67% | –
O=C1c2ccccc2C(=O)c2c(O)c(O)cc(O)c21 [Purpurin] | 11.6 ± 2.51% | –
COc1ccc(/C=C/c2cc(O)cc(O)c2)cc1O [Rhapontigenin] | 42.2 ± 2.89% | –
C[C@@H]1O[C@@H](O[C@H]2[C@H](Oc3cc(O)c4c(=O)cc(-c5ccc(O)cc5)oc4c3)O[C@H](CO)[C@@H](O)[C@@H]2O)[C@H](O)[C@H](O)[C@H]1O [Rhoifolin] | 46.7 ± 1.3% | –
COc1cc(O)c2c(c1)O[C@H](c1ccc(O)cc1)CC2=O [Sakuranetin] | 3.9 ± 1.2% | –
C[C@H]1CC[C@@]2(OC1)O[C@H]1C[C@H]3[C@@H]4CC[C@@H]5C[C@@H](O)CC[C@]5(C)[C@H]4CC[C@]3(C)[C@H]1[C@@H]2C [Sarsasapogenin] | 7.8 ± 0.96% | –
CC(C)=CC[C@@H](O)C1=CC(=O)c2c(O)ccc(O)c2C1=O [Shikonin] | 13.4 ± 1.54% | –
COc1cc([C@@H]2Oc3c(O)cc([C@H]4Oc5cc(O)cc(O)c5C(=O)[C@@H]4O)cc3[C@H]2CO)ccc1O [Silicristin] | 9.3 ± 0.83% | –
C=CC/C(=N/OS(=O)(=O)O)S[C@@H]1O[C@H](CO)[C@@H](O)[C@H](O)[C@H]1O [Sinigrin] | 20.1 ± 4.17% | –

Molecule | inhibition at 64 µg/mL (ClpP [1]) | further results
COc1ccc(-c2cc(=O)c3c(OC)c(OC)c(OC)c(OC)c3o2)cc1 [Tangeretin] | 41.2 ± 1.53% | –
Cc1coc2c1C(=O)C(=O)c1c-2ccc2c(C)cccc12 [Tanshinone I] | 12.3 ± 1.41% | –
O=C1c2c(O)cc(O)cc2O[C@H](c2ccc(O)c(O)c2)[C@H]1O [Taxifolin] | 17.2 ± 1.2% | –
COc1cc(O)c2c(=O)cc(-c3ccccc3)oc2c1 [Tectochrysin] | 7.1 ± 0.26% | –
O=C(CCCCc1ccc2c(c1)OCO2)N1CCCCC1 [Tetrahydropiperine] | 24.5 ± 3.67% | –
C[C@@H]1CC[C@@]2(OC1)O[C@H]1C[C@H]3[C@@H]4CC[C@H]5C[C@@H](O)CC[C@]5(C)[C@H]4CC[C@]3(C)[C@H]1[C@@H]2C [Tigogenin] | 12.3 ± 4.21% | –
O=C(/C=C/c1ccc(O)cc1)OC[C@H]1O[C@@H](Oc2c(-c3ccc(O)cc3)oc3cc(O)cc(O)c3c2=O)[C@H](O)[C@@H](O)[C@@H]1O [Tiliroside] | 3.6 ± 0.17% | –
CC(C)c1ccc2c(c1O)CC[C@H]1C3=C(CC[C@]21C)C(=O)OC3 [Triptophenolide] | 20.8 ± 0.61% | –
COc1cc(-c2oc3cc(O)cc(O)c3c(=O)c2O[C@@H]2O[C@H](CO[C@@H]3O[C@@H](C)[C@H](O)[C@@H](O)[C@H]3O)[C@@H](O)[C@H](O)[C@H]2O[C@@H]2O[C@@H](C)[C@H](O)[C@@H](O)[C@H]2O)ccc1O [Typhaneoside] | 29.7 ± 0.72% | –
O=c1cc(-c2ccc(O)cc2)oc2c([C@@H]3O[C@H](CO)[C@@H](O)[C@H](O)[C@H]3O)c(O)c([C@@H]3O[C@H](CO)[C@@H](O)[C@H](O)[C@H]3O)c(O)c12 [Vicenin-2] | 48.2 ± 2.26% | –
COc1c(O)cc(O)c2c(=O)cc(-c3ccccc3)oc12 [Wogonin] | 35.4 ± 2.11% | –
C=C(C)[C@@H]1CCC(C)=C[C@H]1c1c(O)cc(CCCCC)cc1O [cannabidiol] | 6.8 ± 2.41% | –
CC(C)=CCc1c(O)ccc(C(=O)/C=C/c2ccc(O)cc2)c1O [isobavachalcone] | 97.6 ± 0.26% | MIC (S. aureus USA300 (MRSA)): 8 µg/mL (≈ 24.7 µM)
CC(C)=CCc1c(-c2ccc(O)cc2O)oc2c([C@H]3C=C(C)C[C@@H](c4ccc(O)cc4O)[C@@H]3C(=O)c3ccc(O)cc3O)c(O)cc(O)c2c1=O [kuwanonG] | 21.2 ± 2.56% | –
O=C(O)[C@H]1O[C@@H](Oc2cc(O)c3c(=O)cc(-c4ccc(O)c(O)c4)oc3c2)[C@H](O)[C@@H](O)[C@@H]1O [luteolin-7-glucuronide] | 47.1 ± 3.25% | –
O=c1c(O)c(-c2cc(O)c(O)c(O)c2)oc2cc(O)cc(O)c12 [myricetin] | – | ClpP peptidase assay with fluorescent substrate Suc-LY-AMC (positive-control inh) (ClpP [2]): the inhibitory ability of quercetin and the positive-control myricetin on ClpP activity were the closest
O=c1c(O)c(-c2ccc(O)c(O)c2)oc2cc(O)cc(O)c12 [quercetin] | 74.3 ± 2.67% | MIC (S. aureus USA300 (MRSA)): 128 µg/mL (≈ 424 µM); Kd (ClpP [3]): 197 nM
Caseinolytic peptidase P (ClpP) of S. aureus, label-free (His tag excised) (enzyme, also called casein hydrolase P; label-free ClpP protein; source: E. coli BL21 (DE3), pET28a-clpP, purified (His-Trap); copies: 14) MNLIPTVIETTNRGERAYDIYSRLLKDRIIMLGSQIDDNVANSIVSQLLFLQAQDSEKDIYLYINSPGGSVTAGFAIYDTIQHIKPDVQTICIGMAASMGSFLLAAGAKGKRFALPNAEVMIHQPLGGAQGQATEIEIAANHILKTREKLNRILSERTGQSIEKIQKDTDRDNFLTAEEAKEYGLIDEVMVPETK | – | binding result [4]: binds
